From patent publication US20260062422A1 (Halda Therapeutics OpCo, Inc., priority 2022, published 2026)

Tests used:
VCaP cells = assay: Cellular growth inhibition assay for VCaP cells, CellTiter-Glo; format: cell-based, human; conditions: 72 hours treatment, CellTiter-Glo 2.0
How it was run: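 GI50 values come from four-parameter curve fits of luminescence data normalized to a zero baseline. Compound, in medium with 0.5% DMSO, was added one day after plating and left for 72 h before CellTiter-Glo 2.0 addition.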

[1] = system: T-Rex 293 cell line SC3 cells lacking increased expression of androgen receptor protein; assay: Cellular growth inhibition, T-Rex 293 SC3 cells without doxycycline, CellTiter-Glo; format: cell-based; conditions: T-Rex 293 SC3 cells not exposed to doxycycline, CellTiter-Glo 2.0
How it was run: (§1)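 Luminescence read-out (CellTiter-Glo 2.0) after 72 h compound exposure; GI50 by four-parameter nonlinear regression, baseline set at zero luminescence. SC3 cells, a doxycycline-inducible wild-type AR clone of T-Rex 293, were cultured ±10 ng/mL doxycycline in charcoal-dextran FBS medium.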

[2] = system: T-Rex 293 cell line SC3 cells having increased expression of androgen receptor protein due to exposure to doxycycline; assay: Cellular growth inhibition, T-Rex 293 SC3 cells with doxycycline (androgen receptor induced), CellTiter-Glo; format: cell-based; conditions: T-Rex 293 SC3 cells with 10 ng/mL doxycycline (increased androgen receptor expression)
How it was run: as §1

T47D cells = assay: Cellular growth inhibition assay for T47D cells, CellTiter-Glo; format: cell-based, human; conditions: 72 hours treatment, CellTiter-Glo 2.0 cell viability
How it was run: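 Luminescence from CellTiter-Glo 2.0 after 72 h of compound exposure gives the viability signal. Cells grew in insulin-supplemented (0.2 units/mL) DMEM with 10% FBS and were treated one day after seeding at 0.5% DMSO. GI50 values come from four-parameter nonlinear regression.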

| Compound | GI50 (VCaP cells) [nM] | GI50 ([1]; 72 h) [nM] | GI50 ([2]; 72 h) [nM] | GI50 (T47D cells; Homo sapiens, T47D, 72 h) [nM] | GI50 (VCaP cells; Homo sapiens, VCaP, 72 h) [nM] | GI50 ([1]; 72 hours) [nM] | GI50 ([2]; 72 hours) [nM] | GI50 (T47D cells) [nM] |
| --- | --- | --- | --- | --- | --- | --- | --- | --- |
| Cc1sc2c(c1C)C(c1ccc([C@H]3C[C@H](C[C@@H]4CCCN(c5ncc(C(=O)N[C@H]6C(C)(C)[C@H](Oc7ccc(C#N)c(Cl)c7)C6(C)C)cn5)C4)C3)cc1)=N[C@@H](Cc1ncco1)c1nnc(C)n1-2 [Compound I-402] | 500 to 1500 | > 3000 | < 500 | < 500 |  |  |  |  |
| Cc1sc2c(c1C)C(c1ccc(CN3CC4(CCCN(c5ncc(C(=O)N[C@H]6C(C)(C)[C@H](Oc7ccc(C#N)c(Cl)c7)C6(C)C)cn5)C4)C3)cc1)=N[C@@H](Cc1ncco1)c1nnc(C)n1-2 [Compound I-148] |  | < 500 | < 500 | < 500 | < 500 |  |  |  |
| CC[C@@H]1N=C(c2ccc(N3CC(C4CCN(c5ncc(C(=O)N[C@H]6C(C)(C)[C@H](Oc7ccc(C#N)c(Cl)c7)C6(C)C)cn5)CC4)C3)cc2)c2c(sc(C)c2C)-n2c(C)nnc21 [Compound I-595] |  | > 3000 | < 500 | > 3000 | < 500 |  |  |  |
| Cc1sc2c(c1C)C(c1ccc(CCN3CC[C@]4(C3)CN(c3ncc(C(=O)N[C@H]5C(C)(C)[C@H](Oc6ccc(C#N)c(Cl)c6)C5(C)C)cn3)CCO4)cc1)=N[C@@H](Cc1ncco1)c1nnc(C)n1-2 [Compound I-242] |  | < 500 | < 500 | < 500 | < 500 |  |  |  |
| Cc1sc2c(c1C)C(c1ccc(-n3ncc(C4CCN(c5ncc(C(=O)N[C@H]6C(C)(C)[C@H](Oc7ccc(C#N)c(Cl)c7)C6(C)C)cn5)CC4)n3)cc1)=N[C@@H](Cc1ncco1)c1nnc(C)n1-2 [Compound I-430] |  | < 500 | < 500 | < 500 | < 500 |  |  |  |
| Cc1sc2c(c1C)C(c1ccc(N3CC(C4CCN(c5ncc(C(=O)N[C@H]6C(C)(C)[C@H](Oc7ccc(C#N)c(Cl)c7)C6(C)C)cn5)C4)C3)cc1)=NC1(CC1)c1nnc(C)n1-2 (stereo partly drawn) [Compound I-605] | < 500 |  |  |  |  | < 500 | < 500 | 500 to 1500 |
| Cc1sc2c(c1C)C(c1ccc(CN3CC4(CCCN(c5ncc(C(=O)N[C@H]6C(C)(C)[C@H](Oc7ccc(C#N)c(Cl)c7)C6(C)C)cn5)C4)C3)cc1)=N[C@H](Cc1ncco1)c1nnc(C)n1-2 [Compound I-149] |  | > 3000 | < 500 | > 3000 | 500 to 1500 |  |  |  |
| Cc1sc2c(c1C)C(c1ccc(C(=O)N3CCC[C@H](C(=O)c4ncc(C(=O)N[C@H]5C(C)(C)[C@H](Oc6ccc(C#N)c(Cl)c6)C5(C)C)cn4)C3)cc1)=N[C@@H](Cc1ncco1)c1nnc(C)n1-2 [Compound I-345] |  | > 3000 | > 3000 | 1500 to 3000 | > 3000 |  |  |  |
| Cc1sc2c(c1C)C(c1ccc(O[C@@H]3CC[C@@]4(CCCN(c5ncc(C(=O)N[C@H]6C(C)(C)[C@H](Oc7ccc(C#N)c(Cl)c7)C6(C)C)cn5)C4)C3)cc1)=N[C@@H](Cc1ncco1)c1nnc(C)n1-2 [Compound I-201] |  | > 3000 | < 500 | < 500 | < 500 |  |  |  |
| Cc1sc2c(c1C)C(c1ccc(OC3CC4(CCN(c5ncc(C(=O)N[C@H]6C(C)(C)[C@H](Oc7ccc(C#N)c(Cl)c7)C6(C)C)cn5)CC4)C3)cc1)=NC1(CC1)c1nnc(C)n1-2 [Compound I-461] |  | 500 to 1500 | < 500 | < 500 | < 500 |  |  |  |
| Cc1sc2c(c1C)C(c1ccc(CN3CC(=O)N4CC(c5ncc(C(=O)N[C@H]6C(C)(C)[C@H](Oc7ccc(C#N)c(Cl)c7)C6(C)C)cn5)C[C@H]4C3=O)cc1)=N[C@@H](Cc1ncco1)c1nnc(C)n1-2 (stereo partly drawn) [Compound I-385] |  | > 3000 | > 3000 | > 3000 | 1500 to 3000 |  |  |  |
| Cc1noc2c1-c1ccccc1C(c1ccc(OC3CC4(C3)CN(c3ncc(C(=O)N[C@H]5C(C)(C)[C@H](Oc6ccc(C#N)c(Cl)c6)C5(C)C)cn3)CCO4)cc1)=N[C@H]2Cc1ncco1 [Compound I-221, N-[3-(3-chloro-4-cyano-phenoxy)-2,2,4,4-tetramethyl-cyclobutyl]-2-[2-[4-[(4S)-1-methyl-4-(oxazol-2-ylmethyl)-4H-isoxazolo[5,4-d][2]benzazepin-6-yl]phenoxy]-5-oxa-8-azaspiro[3.5]nonan-8-yl]pyrimidine-5-carboxamide] |  | > 3000 | < 500 | > 3000 | > 3000 |  |  |  |
| Cc1sc2c(c1C)C(c1ccc(C(=O)N3CCC(C(=O)c4ncc(C(=O)N[C@H]5C(C)(C)[C@H](Oc6ccc(C#N)c(Cl)c6)C5(C)C)cn4)CC3)cc1)=N[C@@H](Cc1ncco1)c1nnc(C)n1-2 [Compound I-382] | > 3000 |  |  |  |  | > 3000 | < 500 | > 3000 |
| Cc1sc2c(c1C)C(c1ccc(C3CC(C4CCN(c5ncc(C(=O)N[C@H]6C(C)(C)[C@H](Oc7ccc(C#N)c(Cl)c7)C6(C)C)cn5)CC4)C3)cc1)=NC(C)c1nnc(C)n1-2 (stereo partly drawn) [Compound I-468] | < 500 |  |  |  |  | > 3000 | < 500 | < 500 |
| Cc1sc2c(c1C)C(c1ccc(N3CCC(CCc4cnc(C(=O)N[C@H]5C(C)(C)[C@H](Oc6ccc(C#N)c(Cl)c6)C5(C)C)cn4)CC3)cc1)=N[C@@H](Cc1ncco1)c1nnc(C)n1-2 [Compound I-478] |  | 500 to 1500 | < 500 | 500 to 1500 | < 500 |  |  |  |
| Cc1sc2c(c1C)C(c1ccc(C[C@H]3CC[C@@]4(C3)CN(c3ncc(C(=O)N[C@H]5C(C)(C)[C@H](Oc6ccc(C#N)c(Cl)c6)C5(C)C)cn3)CCO4)cc1)=N[C@@H](Cc1ncco1)c1nnc(C)n1-2 [Compound I-311] |  | < 500 | < 500 | < 500 | < 500 |  |  |  |
| Cc1sc2c(c1C)C(c1ccc(C(=O)N3CCC(Cc4ncc(C(=O)N[C@H]5C(C)(C)[C@H](Oc6ccc(C#N)c(Cl)c6)C5(C)C)cn4)CC3)cc1)=N[C@@H](Cc1ncco1)c1nnc(C)n1-2 [Compound I-288] |  | > 3000 | > 3000 | > 3000 | > 3000 |  |  |  |
| Cc1sc2c(c1C)C(c1ccc(O[C@@H]3CCC4(CCN(c5ncc(C(=O)N[C@H]6C(C)(C)[C@H](Oc7ccc(C#N)c(Cl)c7)C6(C)C)cn5)C4)C3)cc1)=N[C@@H](Cc1ncco1)c1nnc(C)n1-2 (stereo partly drawn) [Compound I-177] |  | < 500 | < 500 | < 500 | < 500 |  |  |  |
| Cc1sc2c(c1C)C(c1ccc(C#CCN3CCN(c4ncc(C(=O)N[C@H]5C(C)(C)[C@H](Oc6ccc(C#N)c(Cl)c6)C5(C)C)cn4)CC3)cc1)=N[C@@H](Cc1ncco1)c1nnc(C)n1-2 [Compound I-56] |  | < 500 | < 500 | < 500 | < 500 |  |  |  |
| Cc1sc2c(c1C)C(c1ccc(O[C@H]3CC[C@]4(CCCN(c5ncc(C(=O)N[C@H]6C(C)(C)[C@H](Oc7ccc(C#N)c(Cl)c7)C6(C)C)cn5)C4)CC3)cc1)=N[C@@H](Cc1ncco1)c1nnc(C)n1-2 [Compound I-171] |  | < 500 | < 500 | > 3000 | < 500 |  |  |  |
| Cc1sc2c(c1C)C(c1ccc(C[C@H]3C[C@@H]([C@H]4CCCN(c5ncc(C(=O)N[C@H]6C(C)(C)[C@H](Oc7ccc(C#N)c(Cl)c7)C6(C)C)cn5)C4)C3)cc1)=N[C@@H](Cc1ncco1)c1nnc(C)n1-2 [Compound I-160] |  | > 3000 | > 3000 | 1500 to 3000 | > 3000 |  |  |  |
| Cc1sc2c(c1C)C(c1ccc(OC3CC4(CCN(c5ncc(C(=O)N[C@H]6C(C)(C)[C@H](Oc7ccc(C#N)c(Cl)c7)C6(C)C)cn5)CC4)C3)cc1)=N[C@](C)(C(C)c1ncco1)c1nnc(C)n1-2 (stereo partly drawn) [Compound I-273] |  | > 3000 | < 500 | > 3000 | > 3000 |  |  |  |
| Cc1sc2c(c1C)C(c1ccc(OC3CC4(C3)CC3(CCN(c5ncc(C(=O)N[C@H]6C(C)(C)[C@H](Oc7ccc(C#N)c(Cl)c7)C6(C)C)c(Cl)n5)CC3)C4)cc1)=N[C@@H](Cc1ncco1)c1nnc(C)n1-2 [Compound I-672, 4-chloro-N-((1r,3r)-3-(3-chloro-4-cyanophenoxy)-2,2,4,4-tetramethylcyclobutyl)-2-(2-(4-((S)-2,3,9-trimethyl-6-(oxazol-2-ylmethyl)-6H-thieno[3,2-f][1,2,4]triazolo[4,3-a][1,4]diazepin-4-yl)phenoxy)-9-azadispiro[3.1.56.14]dodecan-9-yl)pyrimidine-5-carboxamide] |  | > 3000 | > 3000 | < 500 | < 500 |  |  |  |
| Cc1sc2c(c1C)C(c1ccc(C3CC(N4CCN(c5cnc(C(=O)N[C@H]6C(C)(C)[C@H](Oc7ccc(C#N)c(Cl)c7)C6(C)C)cn5)CC4)C3)cc1)=N[C@@H](C)c1nnc(C)n1-2 (stereo partly drawn) [Compound I-573] |  | 500 to 1500 | < 500 | < 500 | < 500 |  |  |  |
